Laboratory results published in patent US8551963B2, “Imidazolothiazole compounds and methods of use thereof” (Ambit Biosciences Corporation, priority 2008, dated 2013).
Several values for one entry are separate records, joined by “and”; a condition that tells them apart may be missing. Identical values can stand only once.

Assays:
FLT3 (D835H) = FLT3 (D835H) (Homo sapiens (Human), UniProt P36888, D835H); experiment: biochemical; type: binding
Protocol: (§1) Competition binding assays used herein were developed, validated and performed as described in Fabian et al., Nature Biotechnology 2005, 23, 329-336. Kinases were produced as fusions to T7 phage (See, Fabian et al. or WO04/015142) or alternatively, the kinases were expressed in HEK-293 cells and subsequently tagged with DNA for PCR detection (See, WO08/005,310). […] The liganded beads were blocked with excess biotin and washed with blocking buffer (SeaBlock (Pierce), 1% BSA, 0.05% Tween 20, 1 mM DTT) to remove unbound ligand and to reduce non-specific binding. […] Test compounds were prepared as 100× stocks in DMSO and rapidly diluted into the aqueous environment. DMSO was added to control assays lacking a test compound. […] The kinase concentration in the eluates was measured by quantitative PCR. Each kinase was tested individually against each compound. Kds were determined using eleven serial threefold dilutions.

P-Glycoprotein = P-Glycoprotein (Homo sapiens (Human), UniProt P08183); experiment: Digoxin bidirectional MDR1-MDCK permeability, Compound I-1 as an inhibitor; settings: Surf.
Protocol: (§2) MDR1-MDCK cells were grown to confluence for 5-10 days on 1 μm filters in 24-well plate. Aliquots of DMSO solute stocks were diluted into Hank's balanced salt solution (HBSS) pH 7.4 containing 25 mM HEPES+−0.05% PS80 to give 0.5, 1.5 or 5.0 μM solute concentrations. Final concentrations of DMSO in the assayed samples ranged from 0.005% for the 0.5 μM concentration to 0.05% for the 5 μM concentration. […] The solute containing donor solutions were transferred to either the apical or basolateral chamber of the permeability diffusion apparatus. Receiver solutions consisted of Hank's balanced salt solution (HBSS) pH 7.4 containing 25 mM HEPES+0.05% PS80. The entire receiver solution was removed at 20 minute intervals and manually replaced with fresh buffer. The concentration of transported solute during each sampling interval was determined by HPLC/UV/MS. The standard curve was produced from serial dilutions of the dosing solution. D0 was a 50 μl aliquot of dosing solution from the donor well diluted with 450 μl of HBSS. The standard curve was produced from serial dilutions of the dosing solution (1:10, 1:25, 1:50, 1:100, 1:500 and 1:1000). Permeability coefficients were calculated for each sampling interval using the following equation:
(§3) [formula] Where VD=volume of donor (0.4 ml for Ap_Bl flux and 1.0 ml for Bl_Ap flux), A=surface area of the filter on which the monolayer was grown (0.31 cm2), MD(0)=mass in the donor at the beginning of the ith sampling interval, MR (t)=mass in the receiver at time t, and _t is the experimental interval (20 minutes). The apparent permeability, Papp, is then calculated as the average:
(§4) The average and standard deviation from the intervals is reported. Mass balance in the system was ascertained by comparing the sum of total transported solute and remaining donor solute with the starting mass of solute and is expressed as a percentage of donor solute at time zero. […] At the termination of the experiment, the cell monolayers are stored in the cold until the data is analyzed. After analysis, if mass balance falls below 70% in a given experiment, those monolayers are retrieved and extracted with acetonitrile. After separation of cellular debris, the extract is analyzed for recoverable solute of interest. […] All determinations were performed in duplicate.

FLT3 (N841I) = FLT3 (N841I) (Homo sapiens (Human), UniProt P36888, N841I); experiment: biochemical; type: binding
Protocol: The liganded beads were blocked with excess biotin and washed with blocking buffer (SeaBlock (Pierce), 1% BSA, 0.05% Tween 20, 1 mM DTT) to remove unbound ligand and to reduce non-specific binding. […] Test compounds were prepared as 100× stocks in DMSO and rapidly diluted into the aqueous environment. DMSO was added to control assays lacking a test compound. […] The kinase concentration in the eluates was measured by quantitative PCR. Each kinase was tested individually against each compound. Kds were determined using eleven serial threefold dilutions.

FLT3 (D835Y) = FLT3 (D835Y) (Homo sapiens (Human), UniProt P36888, D835Y); experiment: biochemical; type: binding
Protocol: as §1

FLT3 = FLT3 (Homo sapiens (Human), UniProt P36888); experiment: biochemical; type: binding
Protocol: as §1

hERG channel = hERG channel (Homo sapiens (Human), UniProt Q12809); experiment: hERG channel inhibition, whole cell recordings in CHO cells; settings: 10 μM
Protocol: Test articles in this study were therefore characterized to determine their ability to inhibit the hERG channel. Ion channel activity was measured using a stably transfected Chinese Hamster Ovary (CHO) cell line expressing the hERG mRNA.
A CHO cell line stably expressing hERG channels was obtained from Aviva Systems Biology LLC and used for the study. Cells were cultured in DMEM/F12 containing 10% FBS, 1% penicillin/streptomycin and 500 μg/ml G418. Before testing, cells were harvested using Accumax (Innovative Cell Technologies).
Whole cell recordings were performed using PX 7000A (Axon Instruments) with AVIVA's SealChip™ technology. Cells were voltage clamped at a holding potential of −80 mV. The hERG current was then activated by a depolarizing step to −50 mV for 300 ms. This first step at −50 mV was used as a baseline for measuring peak amplitude of the tail current. Next, a voltage step to +20 mV was applied for 5 s to activate the channels. Finally a step back to −50 mV for 5 s removed activation and the deactivating tail current was recorded.
All compounds were prepared from either 10 or 30 mM DMSO stock solutions. Solutions were mixed by sonication for 20 min, followed by vigorous vortexing. […]
After achieving whole cell configuration, cells were monitored for 90 s to assess stability and then washed with External Solution for 66 s. […]

[1] = Pharmacokinetic study in rats, intravenous and oral; type: in vivo; settings: rat
Protocol: Rats were dosed either intravenously at 1 mg/kg dose or orally at 10 mg/kg dose with Compound I-1. Blood samples were collected over a 24 hour time-course. The plasma was analyzed for Compound I-1 and the pharmacokinetic parameters were determined.
Pre-catheterized (jugular vein), male Sprague-Dawley rats (230-300 g) obtained from Charles River, Hollister, Calif., were acclimated at the vivarium of Rabbit and Rodent Diagnostic Associates (San Diego, Calif.) for at least three days following delivery and prior to entering a study. Rats were fasted overnight before intravenous or oral dosing. For intravenous dosing, Compound I-1 was dissolved in a 3:1 PEG400:H2O (Water For Injection) solution and administered at a dose of 1 mg/kg. For oral dosing, Compound I-1 was dissolved in a 22% hydroxypropyl-β-cyclodextrin (HPBCD) solution and administered at a dose of 10 mg/kg. Blood was collected at 5 (IV only), 15, 30 min, 1, 2, 4, 6, and 24 hr postdose using K3EDTA as anticoagulant and plasma was harvested for the analysis of Compound I-1.
Plasma samples, calibration standards and quality control samples (20 μL) were extracted with six volumes of acetonitrile containing an internal standard (25 ng/mL) and analyzed using LC-MS/MS analysis (API 3200). Sample separation was achieved on a Zorbax SB C8 column (5 μm, 4.6×50 mm) at a flow rate of 1.6 mL/min. The gradient program was from 5-95% acetonitrile in 0.05% formic acid over one minute. The mass transition from m/z 577.18 to 421.10 was monitored for Compound I-1. The internal standard mass transitions monitored were 483.0 to 317.2.
Pharmacokinetic parameters of Compound I-1 were calculated based on the plasma concentration-time profiles of each animal using the noncompartmental models in WinNonlin v5.2 (Pharsight, Mountain View, Calif.).

CYP2C19 = CYP2C19 (Homo sapiens (Human), UniProt P33261); experiment: Time dependant inhibition in human liver microsomes, CYP2C19; type: in vitro ADME; settings: CYP2C19, 10 μM, pre-incubation 0-30 minutes
Protocol: For each CYP isoform tested, 10 μM Compound I-1 was pre-incubated with pooled male and female human liver microsomes with NADPH in a 37° C. shaking water bath in duplicate to afford a final pre-incubation assay concentration of 100 mM KPO4/pH 7.4, 10 mM MgCl2, 2 mg/mL of human liver microsome (CellzDirect lot HLM HMMC-PL020) and 1 mM NADPH (Calbiochem). At each pre-incubation time point (0, 5, 10, 20, and 30 minutes) 20 μL was removed and placed in a second 96 well plate on ice. After all pre-incubation time points were collected 180 uL of additional human microsome liver preparation containing the appropriate CYP specific substrate at its Km concentration listed in Table 11 plus NADPH, was added to each time point. The samples were incubated for an additional 10 minutes in a 37° C. shaking water bath and then quenched with 75:25 acetonitrile (ACN):water containing the appropriate internal standards listed in Table 11. After brief mixing, the plate was centrifuged and the supernatant removed for analysis by LC/MS/MS (API 4000 Qtrap) for the formation of 6-hydroxy-testosterone (CYP3A4), 4-hydroxy-mephenyloin (CYP2C19), or 6-hydroxy-taxol (CYP2C8). […] Consistent with Example 5, Compound I-1 did inhibit CYP2C8-mediated metabolite formation at 10 μM, but not in a time dependent manner.

MDR1-MDCK cells = experiment: Bidirectional MDR1-MDCK permeability, Compound I-1 as a substrate; settings: 5 μM, Surf.
Protocol: as §2, §3, §4

P-glycoprotein (MDR1) = experiment: as above; settings: dog, Surf.
Protocol: as §2, §3, §4

[2] = Table 17, Digoxin 1 μM + Compound I-1 5.0 μM
[3] = preliminary experiment, Digoxin 1 μM + Compound I-1 0.5 μM
[4] = preliminary experiment, Digoxin 1 μM + Compound I-1 1.5 μM
[5] = preliminary experiment, Digoxin 1 μM + Compound I-1 5.0 μM
[6] = male, Sprague-Dawley, plasma, intravenous, 1 mg/kg
[7] = male, Sprague-Dawley, plasma, oral, 10 mg/kg

Sequence of P-Glycoprotein (P08183 whole entry): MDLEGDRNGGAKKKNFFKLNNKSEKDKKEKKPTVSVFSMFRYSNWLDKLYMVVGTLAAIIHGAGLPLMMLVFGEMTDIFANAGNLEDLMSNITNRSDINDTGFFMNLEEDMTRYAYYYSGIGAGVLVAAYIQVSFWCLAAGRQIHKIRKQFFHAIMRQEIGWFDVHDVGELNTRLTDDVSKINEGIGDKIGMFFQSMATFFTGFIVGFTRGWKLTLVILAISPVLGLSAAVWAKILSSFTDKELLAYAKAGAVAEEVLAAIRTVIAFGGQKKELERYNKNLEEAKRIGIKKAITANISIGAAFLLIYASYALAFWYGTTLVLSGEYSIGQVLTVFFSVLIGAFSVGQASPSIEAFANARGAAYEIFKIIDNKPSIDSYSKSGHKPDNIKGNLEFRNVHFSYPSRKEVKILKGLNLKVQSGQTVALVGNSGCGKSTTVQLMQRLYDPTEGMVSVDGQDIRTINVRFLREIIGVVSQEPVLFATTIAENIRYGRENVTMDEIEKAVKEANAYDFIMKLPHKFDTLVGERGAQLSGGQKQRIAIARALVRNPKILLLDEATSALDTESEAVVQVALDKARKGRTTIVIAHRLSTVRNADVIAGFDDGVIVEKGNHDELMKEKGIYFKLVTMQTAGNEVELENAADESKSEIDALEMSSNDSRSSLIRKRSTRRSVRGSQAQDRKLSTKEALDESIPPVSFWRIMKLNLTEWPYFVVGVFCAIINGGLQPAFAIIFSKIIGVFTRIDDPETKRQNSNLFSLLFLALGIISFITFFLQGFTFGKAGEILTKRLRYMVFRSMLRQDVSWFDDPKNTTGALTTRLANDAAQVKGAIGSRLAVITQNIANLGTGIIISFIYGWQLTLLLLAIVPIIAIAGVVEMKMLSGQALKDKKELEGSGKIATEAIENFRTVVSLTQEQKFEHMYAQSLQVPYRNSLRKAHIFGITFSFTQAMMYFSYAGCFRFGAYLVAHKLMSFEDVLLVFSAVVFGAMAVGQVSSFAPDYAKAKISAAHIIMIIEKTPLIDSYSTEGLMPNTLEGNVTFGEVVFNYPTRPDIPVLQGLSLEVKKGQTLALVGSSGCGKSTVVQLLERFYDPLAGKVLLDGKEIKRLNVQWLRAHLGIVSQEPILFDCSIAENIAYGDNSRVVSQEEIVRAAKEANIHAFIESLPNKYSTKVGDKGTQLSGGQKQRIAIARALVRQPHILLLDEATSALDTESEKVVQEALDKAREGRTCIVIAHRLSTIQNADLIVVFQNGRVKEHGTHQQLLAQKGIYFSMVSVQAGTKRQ
Sequence of hERG channel (Q12809 whole entry): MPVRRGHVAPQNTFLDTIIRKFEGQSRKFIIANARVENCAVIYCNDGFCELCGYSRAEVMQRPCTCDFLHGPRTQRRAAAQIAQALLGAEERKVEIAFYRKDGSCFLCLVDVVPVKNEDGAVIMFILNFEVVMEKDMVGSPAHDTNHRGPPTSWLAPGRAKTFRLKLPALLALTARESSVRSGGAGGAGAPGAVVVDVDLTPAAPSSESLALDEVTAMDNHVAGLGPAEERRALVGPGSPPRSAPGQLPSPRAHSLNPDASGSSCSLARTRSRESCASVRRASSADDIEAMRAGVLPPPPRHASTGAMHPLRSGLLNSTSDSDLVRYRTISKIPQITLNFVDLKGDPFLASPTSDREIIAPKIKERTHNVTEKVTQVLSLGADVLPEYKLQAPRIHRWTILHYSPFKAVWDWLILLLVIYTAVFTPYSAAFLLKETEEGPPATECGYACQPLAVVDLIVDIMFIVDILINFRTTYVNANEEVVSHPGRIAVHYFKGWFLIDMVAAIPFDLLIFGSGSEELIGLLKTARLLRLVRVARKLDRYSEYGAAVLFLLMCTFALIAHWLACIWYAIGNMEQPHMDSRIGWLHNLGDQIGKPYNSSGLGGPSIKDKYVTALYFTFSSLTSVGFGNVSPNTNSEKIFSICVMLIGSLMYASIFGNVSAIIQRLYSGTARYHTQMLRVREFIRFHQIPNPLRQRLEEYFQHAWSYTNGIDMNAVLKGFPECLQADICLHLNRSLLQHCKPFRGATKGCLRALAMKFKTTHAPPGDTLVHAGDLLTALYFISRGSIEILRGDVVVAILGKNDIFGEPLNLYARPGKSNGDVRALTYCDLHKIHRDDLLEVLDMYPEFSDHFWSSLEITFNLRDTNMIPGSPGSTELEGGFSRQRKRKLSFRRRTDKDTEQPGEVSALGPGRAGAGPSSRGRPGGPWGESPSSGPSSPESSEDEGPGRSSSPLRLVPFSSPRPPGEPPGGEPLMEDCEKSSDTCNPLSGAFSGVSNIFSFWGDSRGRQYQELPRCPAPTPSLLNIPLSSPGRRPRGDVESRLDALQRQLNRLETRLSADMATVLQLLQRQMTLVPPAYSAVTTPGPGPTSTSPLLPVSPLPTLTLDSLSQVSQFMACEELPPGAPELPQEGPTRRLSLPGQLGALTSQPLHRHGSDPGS
Sequence of CYP2C19 (P33261 whole entry, canonical isoform): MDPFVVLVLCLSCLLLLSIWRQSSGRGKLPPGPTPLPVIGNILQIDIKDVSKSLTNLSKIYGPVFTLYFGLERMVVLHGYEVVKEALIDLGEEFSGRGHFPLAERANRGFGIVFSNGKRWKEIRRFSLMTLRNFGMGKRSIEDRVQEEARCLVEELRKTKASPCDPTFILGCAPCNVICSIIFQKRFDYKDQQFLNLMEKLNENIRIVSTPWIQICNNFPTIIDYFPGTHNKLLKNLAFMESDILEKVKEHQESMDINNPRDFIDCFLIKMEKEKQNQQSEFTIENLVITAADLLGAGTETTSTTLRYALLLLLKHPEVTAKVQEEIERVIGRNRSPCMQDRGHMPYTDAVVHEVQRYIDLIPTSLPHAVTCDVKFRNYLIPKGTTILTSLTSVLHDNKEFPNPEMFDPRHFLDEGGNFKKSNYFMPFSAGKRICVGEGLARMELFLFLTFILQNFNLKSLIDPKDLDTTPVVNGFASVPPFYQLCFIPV

CC(C)(CO)c1cc(NC(=O)Nc2ccc(-c3cn4c(n3)sc3cc(OCCN5CCOCC5)ccc34)cc2)no1 [Compound I-1, 1-[5-(2-hydroxy-1,1-dimethyl-ethyl)-isoxazol-3-yl]-3-{4-[7-(2-morpholin-4-yl-ethoxy)-benzo[d]imidazo[2,1-b]thiazol-2-yl]-phenyl}-urea]
Kd (FLT3 (D835H)): 1.9 nM
Digoxin Mass Bal (AP→BL) (P-Glycoprotein; [2]): 104%
Digoxin Mass Bal (BL→AP) (P-Glycoprotein; [2]): 98%
Digoxin Mass Bal (AP→BL) (P-Glycoprotein; [3]): 98%
Digoxin Mass Bal (BL→AP) (P-Glycoprotein; [3]): 91%
Digoxin Mass Bal (AP→BL) (P-Glycoprotein; [4]): 98%
Digoxin Mass Bal (BL→AP) (P-Glycoprotein; [4]): 94%
Digoxin Mass Bal (AP→BL) (P-Glycoprotein; [5]): 93%
Digoxin Mass Bal (BL→AP) (P-Glycoprotein; [5]): 99%
Kd (FLT3 (N841I)): 0.77 nM
Kd (FLT3 (D835Y)): 5.5 nM
Kd (FLT3): 0.68 nM
% Block Trial 1 (hERG channel): <10%
% Block Trial 2 (hERG channel): <10%
AUC(0-inf) [1, 6]: 3.29 µM·h
Vd [1, 6]: 1.34 L/kg
clearance [1, 6]: 8.83 mL/min/kg
half-life [1, 6]: 3.4 h
AUC(0-inf) [1, 7]: 2.27 µM·h
Cmax [1, 7]: 360 nM
Tmax [1, 7]: 1.2 h
half-life [1, 7]: 3.7 h
bioavailability ([1]; male, Sprague-Dawley, plasma, oral, 10 mg/kg, calculated with the dose normalized AUC0-inf IV data, read-out: F (absolute bioavailability)): 6.9%
T1/2 ([1]; intravenous, 1 mg/kg): 3.4 h
Time dependant inhibition (CYP2C19): not a time dependant inhibitor
Assymetry Index (MDR1-MDCK cells): 1.7
PeAP→BL (MDR1-MDCK cells): 2.81 ×10⁻⁶ cm/s
PeBL→AP (MDR1-MDCK cells): 6.31 ×10⁻⁶ cm/s and 4.67 ×10⁻⁶ cm/s
efflux ratio at 5 μM (P-glycoprotein (MDR1); MDCK-MDR1, pH 7.4, Assymetry Index): 1.2
Papp A→B at 5 μM (P-glycoprotein (MDR1); MDCK-MDR1, pH 7.4, PeAP→BL): 5.1 ×10⁻⁶ cm/s
